Measured values as given in US5643947A, “ω-amino-α-phenylalkanonitrile derivatives” (G. D. Searle & Co., priority 1995, dated 1997).
Where two headings read alike, the source gives them in different places.

Columns and labels:
[1] = system: serotonin-2 (5-HT2) receptors of both blood vessels and brain; conditions: DeFeudis 1989; cited from earlier work
[2] = system: calcium channel; conditions: DeFeudis 1989; cited from earlier work
[3] = system: femoral arterial circulation; test: Vasodilation in perfused hindlimb of anaesthetized dog; assay type: in vivo; conditions: for VASODILATION score: 30 mcg/kg injected into perfused femoral artery, vs papaverine; for vasodilator activity compared with papaverine: 30 mcg/kg, in words
Procedure: The peripheral vasodilator activity of compounds of the invention was measured in anaesthetized dog at the femoral arterial circulation. For this procedure, the femoral artery (the collaterals of which were ligated) was perfused with a constant flow rate of blood taken from aorta. The perfusion pressure measured at the femoral artery varied as a function of the resistance of the perfused area. The test compounds in diluted solvents were directly injected in the system at a dose of 30 mcg/kg. With the blood circulation rate being maintained constant, vasodilation was thus measured by a decrease of the perfusion pressure, in comparison with the action of papaverine considered as standard. The vasodilator activity was rated as follows:
+: 1/3 of the papaverine activity.
++: 2/3 of the papaverine activity.
+++: activity equal to that of papaverine (i.e. 30 to 40 mm Hg).
++++: activity higher than that of papaverine.

[4] = Acute oral toxicity in mice; conditions: mouse, in vivo, male mice, mortality over 15 days
Procedure: Compounds #1, #2 , #3, #4 and #7 were tested for acute toxicity. The acute toxicity was determined after oral administration of the test compound to mice. Compound to be tested was suspended in a 1% tragacanth gum mucilage and was administered by means of an intragastric tube to a group of three male mice per dose. The mortailty was recorded over a period of 15 days.

[5] = system: spontaneously hypertensive rats; test: Antihypertensive activity in spontaneously hypertensive rats (SHR); assay type: in vivo, rat; conditions: 60 mg/kg oral; for SHR score: systolic pressure up to 3 hours; for lowering of the systolic blood pressure: SHR
Procedure: The biological activity of the compounds of the invention was evaluated in vivo on spontaneous hypertensive rats. In this test, antihypertensive activity was tested by oral administration to non-anaesthetized, spontaneously hypertensive rats, on which the systolic arterial pressure was measured at the median coccygeal artery by means of a plethysmographic method [J. Roba, G. Lambelin, A. F. De Schaepdryver, Arch. Int. Pharmacodyn., 200, 182 (1972)]. The arterial pressure was measured every 30 minutes from two hours before to three hours after oral administration of 60 mg/kg of the test compounds or of a placebo (1% tragacanth gum mucilage). Only rats having a systolic pressure of 180 to 220 mmHg were used. Each compound was tested in two rats.
The antihypertensive effects were rated as follows:
+: reduction of 10 to 20 mm Hg.
++: reduction of 20 to 30 mm Hg.
+++: reduction of 30 to 40 mm Hg.
++++: reduction >40 mm Hg.

[6] = target: α1 -adrenergic receptor; test: α1-adrenergic receptor binding, 3H-WB4101, rat forebrain; conditions: for α1 pKi: rat forebrain, 3H-WB-4101 1.6 nM, pH 7.4, 25 °C, 15 min, values marked (2) are estimated; for affinity for the α1 -adrenergic receptor: 3H-WB4101, rat forebrain, in words
Procedure: (§1) Methodological Data for In Vitro Binding Assay of Various Receptors
(§2) KD values (Dissociation Constant) were determined by Scatchard analysis. Ki values (Inhibition Constant) were calculated according to the Cheng and Prusoff equation, using IC50 values: [formula]

[7] = target: T1, 5HT2 receptor (Rattus norvegicus, UniProt P14842); test: 5HT2 receptor binding, 3H-ketanserin, rat frontal cortex
T1 construct: frontal cortex preparations of rat; from tissue; host or cells: rat frontal cortex
Procedure: as §1, §2

[8] = target: T2, slow Ca^2+ channel binding sites (Cavia porcellus, UniProt O35505); test: Ca2+ receptor binding, 3H-nitrendipine competition; design: species or system guinea-pig; conditions: for competition curve at slow Ca^2+ channel binding sites: 3H-nitrendipine competition, in words; for Ki: guinea-pig forebrain, 3H-nitrendipine 0.2 nM, pH 7.4, 25 °C, 90 min, read-out: CA2^+ BINDING pKi (converted)
T2 construct: forebrain; from tissue; host or cells: guinea-pig forebrain
Procedure: (§3) Receptor binding experiments were conducted under the experimental conditions described in Table III. ^3 H-nitrendipine is the radioligand of choice to determine, after competition at different concentrations, the affinity of compounds of the invention, for the slow Ca^2+ channel binding sites. […] After this in vitro biochemical testing, the compounds of the invention were tested for their CA^2+ antagonist properties on isolated organs. The method used was updated from M Spedding (Nauyn-Schmiedeberg's Arch. Pharmacol., 318, 234-240, 1982) and can be summarized as follows: Aorta rings from male rats were prepared and maintained in oxygenated Krebs solution at 37° C. The contractions were induced by 40 mM K+ in the absence or in the presence of the test compound. Each test compound was tested at least twice. […] The phasic and tonic parts of each response elicited by K+ were considered separately and were expressed in % of their corresponding controls. The IC50 values (from pIC50) were estimated by plotting the % response against the log of the concentrations.
as §1, §2

[9] = system: Aorta rings; test: Ca2+ antagonism on isolated rat aorta rings, contractions induced by 40 mM K+; assay type: cell-based; conditions: for inhibition of phasic and tonic phases of the contractions: in words
Procedure: as §3, with “The method used was updated from M Spedding (Nauyn-Schmiedeberg's Arch. Pharmacol., 318, 234-240, 1982) and can be summarized as follows: Aorta rings from male rats were prepared and maintained in oxygenated Krebs solution at 37° C.” left out

[10] = 37 °C, phasic part, read-out: AORTA/K+ pIC50 phasic (converted)
[11] = 37 °C, tonic part, read-out: AORTA/K+ pIC50 tonic (converted)
[12] = read-out: Concentration inhibiting the contractions by 50%

T1 sequence (P14842 whole entry): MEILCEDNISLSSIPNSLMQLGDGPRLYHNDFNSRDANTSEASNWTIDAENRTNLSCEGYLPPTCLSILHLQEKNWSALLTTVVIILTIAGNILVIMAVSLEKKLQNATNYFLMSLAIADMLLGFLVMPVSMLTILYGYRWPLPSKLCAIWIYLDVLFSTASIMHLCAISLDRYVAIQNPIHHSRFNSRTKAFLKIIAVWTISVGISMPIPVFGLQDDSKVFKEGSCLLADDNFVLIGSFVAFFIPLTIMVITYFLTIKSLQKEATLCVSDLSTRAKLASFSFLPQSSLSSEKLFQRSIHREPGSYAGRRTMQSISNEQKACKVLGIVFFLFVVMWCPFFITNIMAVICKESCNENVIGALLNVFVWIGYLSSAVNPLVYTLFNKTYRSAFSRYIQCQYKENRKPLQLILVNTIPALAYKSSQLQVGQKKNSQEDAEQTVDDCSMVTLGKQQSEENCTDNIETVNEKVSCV
T2 sequence (O35505 whole entry): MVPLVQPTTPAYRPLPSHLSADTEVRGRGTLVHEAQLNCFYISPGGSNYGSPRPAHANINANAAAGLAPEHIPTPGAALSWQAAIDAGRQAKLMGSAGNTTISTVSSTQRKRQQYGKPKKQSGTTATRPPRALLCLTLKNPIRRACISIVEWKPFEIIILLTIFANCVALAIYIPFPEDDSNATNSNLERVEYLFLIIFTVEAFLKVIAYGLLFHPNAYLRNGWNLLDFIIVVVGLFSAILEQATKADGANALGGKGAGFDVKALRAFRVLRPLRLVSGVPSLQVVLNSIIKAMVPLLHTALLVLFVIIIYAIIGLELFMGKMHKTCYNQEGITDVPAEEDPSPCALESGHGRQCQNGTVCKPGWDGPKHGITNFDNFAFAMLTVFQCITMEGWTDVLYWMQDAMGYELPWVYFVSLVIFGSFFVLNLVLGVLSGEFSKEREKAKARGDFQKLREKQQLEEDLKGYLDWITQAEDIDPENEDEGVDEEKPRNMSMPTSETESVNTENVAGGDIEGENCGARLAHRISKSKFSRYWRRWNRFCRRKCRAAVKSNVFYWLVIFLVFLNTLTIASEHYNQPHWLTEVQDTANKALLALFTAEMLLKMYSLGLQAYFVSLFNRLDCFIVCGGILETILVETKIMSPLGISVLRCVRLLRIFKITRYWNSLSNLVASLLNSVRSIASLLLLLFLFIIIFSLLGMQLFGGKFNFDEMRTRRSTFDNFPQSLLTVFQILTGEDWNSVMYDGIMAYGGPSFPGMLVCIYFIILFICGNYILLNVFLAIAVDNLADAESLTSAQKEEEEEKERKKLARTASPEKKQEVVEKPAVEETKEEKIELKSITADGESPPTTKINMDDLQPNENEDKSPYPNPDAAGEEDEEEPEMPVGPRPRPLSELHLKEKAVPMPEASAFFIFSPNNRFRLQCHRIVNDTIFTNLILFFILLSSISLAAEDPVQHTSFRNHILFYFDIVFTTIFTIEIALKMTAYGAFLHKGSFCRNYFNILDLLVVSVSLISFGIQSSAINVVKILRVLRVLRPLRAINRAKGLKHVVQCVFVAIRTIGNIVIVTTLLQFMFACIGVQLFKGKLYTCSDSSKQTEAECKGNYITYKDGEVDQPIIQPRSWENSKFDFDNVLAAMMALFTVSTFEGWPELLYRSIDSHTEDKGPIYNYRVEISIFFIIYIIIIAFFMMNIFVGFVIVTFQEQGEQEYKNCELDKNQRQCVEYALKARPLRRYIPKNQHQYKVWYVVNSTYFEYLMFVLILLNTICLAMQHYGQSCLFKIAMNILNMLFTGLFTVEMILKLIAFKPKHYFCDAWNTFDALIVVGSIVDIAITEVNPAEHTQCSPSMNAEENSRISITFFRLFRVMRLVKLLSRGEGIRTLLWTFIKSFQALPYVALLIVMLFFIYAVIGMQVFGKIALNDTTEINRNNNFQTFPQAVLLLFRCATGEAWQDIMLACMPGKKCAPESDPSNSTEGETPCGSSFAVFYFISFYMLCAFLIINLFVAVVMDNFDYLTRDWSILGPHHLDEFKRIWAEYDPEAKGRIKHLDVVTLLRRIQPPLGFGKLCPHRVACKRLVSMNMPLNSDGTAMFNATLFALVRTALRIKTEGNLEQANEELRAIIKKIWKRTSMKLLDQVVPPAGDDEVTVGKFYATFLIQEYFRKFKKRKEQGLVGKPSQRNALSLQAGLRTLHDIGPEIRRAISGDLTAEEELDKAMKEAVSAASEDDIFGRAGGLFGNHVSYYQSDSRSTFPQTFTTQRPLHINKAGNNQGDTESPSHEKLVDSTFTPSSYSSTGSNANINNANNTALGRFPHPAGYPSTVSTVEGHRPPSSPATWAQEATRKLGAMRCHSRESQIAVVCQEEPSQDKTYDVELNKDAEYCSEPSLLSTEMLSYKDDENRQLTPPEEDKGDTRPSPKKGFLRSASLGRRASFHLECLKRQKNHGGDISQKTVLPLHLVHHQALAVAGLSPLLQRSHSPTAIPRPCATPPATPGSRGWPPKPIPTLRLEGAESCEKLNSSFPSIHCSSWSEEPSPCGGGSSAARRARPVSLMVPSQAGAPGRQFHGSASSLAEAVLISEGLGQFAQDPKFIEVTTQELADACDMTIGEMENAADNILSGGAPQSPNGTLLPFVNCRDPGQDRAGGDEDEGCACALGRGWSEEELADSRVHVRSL

SMILES	VASODILATION score [3]	LD50 at 360 h [4] [mg/kg]	α1 pKi [6]	Ki [7] [nM]	competition curve at slow Ca^2+ channel binding sites [8]	affinity for the α1 -adrenergic receptor [6]	Ki [8] [nM]	other results
CC(C)[C@@](C#N)(CCCN(C)CCc1ccccc1)c1ccccc1 [(S)-emopamil]								action at serotonin-2 (5-HT2) receptors [1]: antagonist at serotonin-2 (5-HT2) receptors; calcium channel blocking activity [2]: showing calcium channel blocking activity
CCCCCCCCN(C)CCCC(C#N)(c1ccc(OC)c(OC)c1)C(C)C (centres unmarked) [Compound #1, 5-[(n-octyl)methylamino]-2-(3,4-dimethoxyphenyl) -2-isopropyl-valeronitrile]	++++	> 300	≤ 6	100	does not reach the non-specific base-line			vasodilator activity compared with papaverine [3]: more active than papaverine; SHR score [5]: ++++ (reduction >40 mm Hg.); lowering of the systolic blood pressure [5]: more than 40 mm Hg; IC50 [9, 10]: 200 nM; IC50 [9, 11]: 200 nM; inhibition of phasic and tonic phases of the contractions [9]: similarly inhibited; IC50 [9, 12]: 200 nM
COc1ccc(C(C#N)(CCCN(C)CCCCc2ccccc2)C(C)C)cc1OC (centres unmarked) [Compound #2, 5-[(4-phenylbutyl)methylamino]-2-(3,4-dimethoxyphenyl)-2-isopropylvaleronitrile]	++++	350	7	100	does not reach the non-specific base-line	display affinity for the α1 -adrenergic receptor		vasodilator activity compared with papaverine [3]: more active than papaverine; SHR score [5]: ++++ (reduction >40 mm Hg.); lowering of the systolic blood pressure [5]: more than 40 mm Hg; IC50 [9, 10]: 63.1 nM; IC50 [9, 11]: 100 nM; inhibition of phasic and tonic phases of the contractions [9]: similarly inhibited; IC50 [9, 12]: 60 nM
COc1ccc(C(C#N)(CCCN(C)CCCCCc2ccccc2)C(C)C)cc1OC (centres unmarked) [compound 3, 5-[5-(phenylpentyl)methylamino]-2-(3,4-dimethoxyphenyl)-2-isopropylvaleronitrile]	+++ (activity equal to that of papaverine (i.e. 30 to 40 mm Hg).)	470	≤ 6	10	reaching the non-specific level		251	
COc1ccc(C(C#N)(CCCN(C)CCCc2ccccc2)C(C)C)cc1OC (centres unmarked) [compound 4]		540	≤ 6	31.6	does not reach the non-specific base-line			
CCCCCCCCN(CCCC(C#N)(c1ccc(OC)c(OC)c1)C(C)C)Cc1ccccc1 (centres unmarked) [compound 5]			≤ 6	> 1000	reaching the non-specific level		501	
CCCCCCCCCCN(C)CCCC(C#N)(c1ccc(OC)c(OC)c1)C(C)C (centres unmarked) [compound 6, 5-[(n-decyl)methylamino]-2-(3,4-dimethoxyphenyl)-2-isopropylvaleronitrile]			< 6	100	reaching the non-specific level		39.8	IC50 ([9]; 37 °C, one value printed for phasic/tonic, read-out: AORTA/K+ pIC50 phasic/tonic (converted)): ≥ 1000 nM
COc1ccc(C(C#N)(CCCN(C)CC=Cc2ccccc2)C(C)C)cc1OC (centres unmarked) [compound 7]		> 1000	6.8		does not reach the non-specific base-line	display affinity for the α1 -adrenergic receptor		
CCCCCCCCNCCCC(C#N)(c1ccc(OC)c(OC)c1)C(C)C (centres unmarked) [compound 8]			6.7	158	reaching the non-specific level	display affinity for the α1 -adrenergic receptor	126	
CCOC(=O)C1=C(C)NC(C)=C(C(=O)OC)C1c1cccc([N+](=O)[O-])c1 (centres unmarked) [nitrendipine, reference compound]								Kd [8]: 0.2 nM
